Columns and labels:
[1] = system: A2780 (ovarian carcinoma); assay: SRB cytotoxicity assay, A2780; format: cell-based, human; settings: for selectivity index 1 (SI 1): CCD18Co/A2780; for IC50: SRB assay, 72 h treatment, mean n = 3, SD 5-10%
From the text: (§1) All compounds were screened for their cytotoxic activity and tumor cell selectivity using our standard model, previously described, comprising a selection of human tumor cell lines representing different solid tumor entities and non-malignant human fibroblasts (CCD18Co) including the cell line pair A2780/A2780cis, a well-known model of acquired drug resistance.
(§2) Reagents were bought from commercial suppliers and used without further purification. The solvents were dried according to the usual procedures. TLC was performed on silica gel (Macherey-Nagel, detection with UV absorption; Macherey-Nagel, Düren, Germany). […] Numbering in the NMR spectra: 1–20 (diterpene core), 21–24 for O-(CH2)n-N fragment followed by the pyridinium ring, the ethenyl moiety and the indole moiety. […] IR spectra were recorded on a Perkin-Elmer Spectrum Two (UATR Two Unit, Perkin-Elmer GmbH, Rodgau, Germany). […] Both media were supplemented with 10% fetal bovine serum (Biowest, Nuaillé, France) and 1% penicillin-streptomycin (Sigma-Aldrich).
(§3) Cytotoxic activities of compounds were analyzed using the SRB cytotoxicity assay. Cells were seeded in 96-well plates and after 24 h were treated with serial dilutions of compounds for 72 h. All subsequent steps were performed according to the previously described SRB assay protocol. Dose–response curves and calculation of IC50 values, including standard deviations, were carried out using GraphPad Prism8.

[2] = system: A2780cis (resistant derivative of A2780); assay: SRB cytotoxicity assay, A2780cis; format: cell-based, human; settings: for IC50: SRB assay, 72 h treatment, mean n = 3, SD 5-10%; for resistance index (RI): quotient IC50 values A2780cis/A2780
From the text: as §1, §2, §3

A549 (lung carcinoma) = assay: SRB cytotoxicity assay, A549; format: cell-based, human; settings: for selectivity index 2 (SI 2): CCD18Co/A549; for IC50: SRB assay, 72 h treatment, mean n = 3, SD 5-10%
From the text: as §1, §2, §3

MCF7 (breast carcinoma) = assay: SRB cytotoxicity assay, MCF7; format: cell-based, human; settings: 72 h treatment, mean n = 3, SD 5-10%
From the text: as §1, §2, §3

[3] = system: HT29 (colorectal carcinoma); assay: SRB cytotoxicity assay, HT29; format: cell-based, human; settings: 72 h treatment, mean n = 3, SD 5-10%
From the text: as §1, §2, §3

[4] = system: CCD18Co (non-malignant human fibroblasts); assay: SRB cytotoxicity assay, CCD18Co; format: cell-based; settings: 72 h treatment, mean n = 3, SD 5-10%
From the text: as §1, §2, §3

Row | Molecule | selectivity index 1 (SI 1) [1] | IC50 [1] [nM] | IC50 [2] [µM] | resistance index (RI) [2] | selectivity index 2 (SI 2) (A549 (lung carcinoma)) | IC50 (A549 (lung carcinoma)) [µM] | IC50 (MCF7 (breast carcinoma)) [µM] | IC50 [3] [µM] | IC50 [4] [µM] | tumor cell selectivity, in words ([1]; tumor cells vs non-malignant fibroblasts CCD18Co) | drug resistance in the A2780/A2780cis model, in words ([2]; A2780cis vs A2780)
1 | CC12CCC3C(CCC4C(C)(C(=O)OCCC[n+]5cccc(C=Cc6c[nH]c7ccccc67)c5)CCCC34C)(CC1=O)C2.[Br-] (stereo not drawn) [Compound 19, 3-{3[(E)-2-(1H-Indol-3-yl)-ethenyl]-pyridinium-1-yl}-propyl (4α, 8β, 13β) 13-Methyl-16-oxo-17-norkauran-18-oate Bromide] | 15.60 | 990 | 1.93 | 1.94 | 1.38 | 11.2 | 2.5 | 5.05 | 15.5 | – | –
2 | C=C1C[C@@]23CC[C@H]4[C@@](C)(CCC[C@@]4(C)C(=O)OCCCC[n+]4cccc(/C=C/c5c[nH]c6ccccc56)c4)[C@@H]2CC[C@]1(O)C3.[Br-] [Compound 26, 4-{3-[(E)-2-(1H-Indol-3-yl)-ethenyl]-pyridinium-1-yl}butyl (4α)-13-Hydroxykaur-16-en-18-oate Bromide] | 9.14 | 1280 | 1.82 | 1.42 | 1.69 | 6.94 | 1.98 | 2.43 | 11.7 | – | –
3 | CC12CCC3C(CCC4C(C)(C(=O)OCCCCBr)CCCC34C)(CC1=O)C2 (stereo not drawn) [Compound 23, 4-Bromobutyl (4α, 8β, 13β) 13-Methyl-16-oxo-17-norkauran-18-oate] | 2.40 | 13000 | 29.1 | 2.23 | 0.91 | 34.3 | 18.4 | 24.6 | 31.3 | – | –
4 | C=C1C[C@@]23CC[C@H]4[C@@](C)(CCC[C@@]4(C)C(=O)OCCC[n+]4ccc(/C=C/c5c[nH]c6ccccc56)cc4)[C@@H]2CC[C@]1(O)C3.[Br-] [Compound 16, 3-{4-[(E)-2-(1H-Indol-3-yl)ethenyl]-pyridinium-1-yl}-propyl (4α)-13-Hydroxykaur-16-en-18-oate Bromide] | 26.27 | 320 | 0.45 | 1.41 | 2.77 | 3 | 0.72 | 0.98 | 8.33 | – | –
5 | C=C1C[C@@]23CC[C@H]4[C@@](C)(CCC[C@@]4(C)C(=O)OCCBr)[C@@H]2CC[C@]1(O)C3 [Compound 6, 2-Bromoethyl (4α)-13-Hydroxykaur-16-en-18-oate] | 1.70 | 24800 | 28.1 | 1.13 | 0.51 | 83.4 | 29.4 | 30.6 | 42.2 | – | –
6 | C=C1C[C@@]23CC[C@H]4[C@@](C)(CCC[C@@]4(C)C(=O)OCC[n+]4ccccc4/C=C/c4c[nH]c5ccccc45)[C@@H]2CC[C@]1(O)C3.[Br-] [Compound 12, 2-{2-[(E)-2-(1H-Indol-3-yl)ethenyl]-pyridinium-1-yl}-ethyl (4α)-13-Hydroxykaur-16-en-18-oate Bromide] | 2.95 | 25700 | 29.4 | 1.14 | 1.40 | 54.3 | 20.2 | 28.5 | 75.9 | – | –
7 | C=C1C[C@@]23CC[C@H]4[C@@](C)(CCC[C@@]4(C)C(=O)OCC[n+]4cccc(/C=C/c5c[nH]c6ccccc56)c4)[C@@H]2CC[C@]1(O)C3 [Compound 10, 2-{3-[(E)-2-(1H-Indol-3-yl)ethenyl]-pyridinium-1-yl}-ethyl (4α)-13-Hydroxykaur-16-en-18-oate Bromide] | – | 2800 | 4.2 | – | – | – | 3.83 | 7.65 | 22.7 | – | –
8 | C[C@@]12CC[C@@H]3[C@@](CC[C@H]4[C@@]3(C)CCC[C@@]4(C)C(=O)OCCBr)(CC1=O)C2 [Compound 7, 2-Bromoethyl (4α, 8β, 13β) 13-Methyl-16-oxo-17-norkauran-18-oate] | 3.26 | 19100 | 28.7 | 1.50 | 1.94 | 32.1 | 11.8 | 16.1 | 62.3 | – | –
9 | CC12CCC3C(CCC4C(C)(C(=O)OCC[n+]5ccccc5C=Cc5c[nH]c6ccccc56)CCCC34C)(CC1=O)C2.[Br-] (stereo not drawn) [Compound 13, 2-{2-[(E)-2-(1H-Indol-3-yl)ethenyl]-pyridinium-1-yl}-ethyl (4α, 8β, 13β) 13-Methyl-16-oxo-17-norkauran-18-oate Bromide] | 10.75 | 1920 | 4.07 | 2.12 | 1.90 | 10.8 | 3.83 | 6.35 | 20.6 | – | –
10 | C=C1C[C@@]23CC[C@H]4[C@@](C)(CCC[C@@]4(C)C(=O)OCCCC[n+]4ccc(/C=C/c5c[nH]c6ccccc56)cc4)[C@@H]2CC[C@]1(O)C3.[Br-] [Compound 24] | 53.96 | 240 | 0.28 | 1.13 | 4.74 | 2.76 | 0.58 | 0.88 | 13.1 | retained selectivity | able to reduce or even overcome drug resistance
11 | C=C1C[C@@]23CC[C@H]4[C@@](C)(CCC[C@@]4(C)C(=O)OCCCC[n+]4ccccc4/C=C/c4c[nH]c5ccccc45)[C@@H]2CC[C@]1(O)C3.[Br-] [Compound 28] | 21.75 | 500 | 1.68 | 3.33 | 1.46 | 7.51 | 1.18 | 1.78 | 10.9 | – | –
12 | C=C1C[C@@]23CC[C@H]4[C@@](C)(CCC[C@@]4(C)C(=O)OCCCBr)[C@@H]2CC[C@]1(O)C3 [Compound 14, 3-Bromopropyl (4α) -13-hydroxykaur-16-en-18-oate] | 1.51 | 27600 | 28.4 | 1.03 | 1.44 | 29 | 28.1 | 29.1 | 41.7 | – | –
13 | CC12CCC3C(CCC4C(C)(C(=O)OCCCC[n+]5ccccc5C=Cc5c[nH]c6ccccc56)CCCC34C)(CC1=O)C2.[Br-] (stereo not drawn) [Compound 29, 4-{2-[(E)-2-(1H-Indol-3-yl)ethenyl]pyridinium-1-yl}-butyl (4α, 8β, 13β) 13-Methyl-16-oxo-17-norkauran-18-oate Bromide] | 17.61 | 1060 | 3.22 | 3.05 | 1.88 | 9.86 | 2.05 | 3.81 | 18.6 | – | –
14 | CC12CCC3C(CCC4C(C)(C(=O)OCCCC[n+]5cccc(C=Cc6c[nH]c7ccccc67)c5)CCCC34C)(CC1=O)C2.[Br-] (stereo not drawn) [Compound 27, 4-{3-[(E)-2-(1H-Indol-3-yl)ethenyl]-pyridinium-1-yl}butyl (4α, 8β, 13β) 13-Methyl-16-oxo-17-norkauran-18-oate Bromide] | 14.18 | 760 | 1.27 | 1.67 | 1.72 | 6.28 | 1.57 | 2.2 | 10.8 | – | –
15 | C=C1C[C@@]23CC[C@H]4[C@@](C)(CCC[C@@]4(C)C(=O)OCCC[n+]4ccccc4/C=C/c4c[nH]c5ccccc45)[C@@H]2CC[C@]1(O)C3.[Br-] [Compound 20, 3-{2-[(E)-2-(1H-Indol-3-yl)-ethenyl]-pyridinium-1-yl}-propyl (4α)-13-Hydroxykaur-16-en-18-oate bromide] | 10.73 | 1810 | 2.7 | 1.49 | 1.55 | 12.6 | 1.85 | 6.11 | 19.4 | – | –
16 | CC12CCC3C(CCC4C(C)(C(=O)OCCCBr)CCCC34C)(CC1=O)C2 (stereo not drawn) [Compound 15, 3-Bromopropyl (4α, 8β, 13β) 13-Methyl-16-oxo-17-norkauran-18-oate] | 4.61 | 9000 | 16.6 | 1.85 | 1.67 | 24.8 | 12.8 | 15.1 | 41.5 | – | –
17 | 4-Bromobutyl (4α) -13-Hydroxykaur-16-en-18-oate Bromide [Compound 22] | 3.58 | – | – | 1.14 | 1.68 | – | – | – | – | – | –

— PMC10821019, “F16 Hybrids Derived from Steviol or Isosteviol Are Accumulated in the Mitochondria of Tumor Cells and Overcome Drug Resistance” (Molecules, 2024)
